According to US11510980B2, “Brartemicin analogues” (VICTORIA LINK LTD, priority 2017, dated 2022):
“Also recorded” adds a separate entry of the source.

Tests used:
C57BL/6 mice = test: Delayed-type hypersensitivity immunisation with OVA in oil-in-water emulsion; type: in vivo; settings: for Th1 immune response / adjuvant activity in vivo: oil-in-water emulsion
Experimental: Delayed-type hypersensitivity: Mice were sensitised by subcutaneous injection with oil-in-water emulsions (mineral oil/Tween-80/PBS, 9:1:90, v/v/v) containing OVA only (200 μg), OVA+TDB (OVA=200 μg, TDB=0.3 μmol), OVA+9a (OVA=200 μg, 9a=0.3 μmol) or no OVA. After seven days, the mice were challenged with OVA (100 μg/footpad) and after a further seven days, the mice were sacrificed and their spleens harvested. For in vitro restimulation, splenocytes were restimulated with OVA and analysed for spenocyte number (measured at 450 nm after 3 hours, Cell Count Reagent SF, Nacalai Tesque Inc.), IFN-γ production, and IL-17 production. Footpad swelling was measured using a venier caliper pre-challenge, 24 hours post-challenge, and 48 hours post-challenge. Sera were collected from each mouse on days 0, 7, and 14 and analysed for OVA-specific antibody titers by ELISA using HRP coupled goat anti-mouse IgG (GE Health-care), IgG1, IgG2b, IgG2c, and IgG3 (SouthernBiotec). EC50 were defined by plotting the absorbance at 450 nm against log of serum concentration. Antibody titration curves were plotted using GraphPad Prism7 (GraphPad Software).
Compound 9a was then evaluated in vivo to confirm its capacity to induce a Th1 antigen-specific response using a delayed-type hypersensitivity immunisation protocol. To this end, four groups of C57BL/6 mice were immunised by subcutaneous injection with oil-in-water emulsions containing either OVA only, OVA+C18dMeBrar (9a), OVA+TDB, or no OVA. After seven days the mice were challenged with OVA (100 μg per footpad) and after a further seven days, the splenocytes were isolated and restimulated with OVA at three concentrations (10, 30, or 100 μg/mL). The immune response was measured by determining footpad swelling, production of IFN-γ and IL-17 (FIG. 7b), T cell proliferation (FIG. 4a), and antibody titres (FIG. 4c). […] Accordingly, the ability of C18dMeBrar (9a) to lead to an enhanced Th1 immune response was even more striking. This overall immune profile was also reflected in the antibody production by immunised mice. […] A high IgG2c:IgG1 ratio is commonly associated with Th1 responses and a lower ratio is associated with Th2 responses. The production of IgG2c in mice immunised with C18dMeBrar increased three-fold as compared to OVA alone, providing evidence that C18dMeBrar induces a Th1-biased immune response.

wild-type GM-CSF BMDMs = test: Cytokine/chemokine production by wild-type GM-CSF BMDMs on ligand-coated plates; type: cell-based, C57BL/6 mice; settings: wild-type BMDMs, coated plates 0.1 or 1 nmol/well, 24 hours, ELISA
Experimental: (§1) Preparation of ligand-coated plates: Brartemicin analogues 9a-9i, TDM (Carbosynth, Sigma Aldrich), and TDB^14 were dissolved in CHCl3:MeOH (2:1, 1 mM), diluted in isopropanol ([…]) and added to 96-well plates (20 μL/well). The solvents were evaporated and the coated plates were used immediately.
Murine bone-marrow derived macrophages: For the preparation of murine bone-marrow derived macrophages, bone marrow cells were collected from the tibias and femurs of C57BL/6 mice and cultured (250,000 cells/mL) in complete RPMI media [RPMI-1640 (Gibco) with 10% heat inactivated fetal bovine serum (Gibco), 100 unit/mL penicillin-streptomycin (Gibco) and 2 mM Glutamax (Gibco)] supplemented with 50 ng/mL GM-CSF (clone X63/GM-CSF murine cells). Cells were incubated at 37° C. (5% CO2) for 8 days (cells fed by replacing half the media on days 3 and 6). On day 8, all media was removed and the cells were washed with Dulbecco's Phosphate-Buffered Saline (DPBS, Gibco) to remove any loosely-adherent cells. The BMDMs were harvested with StemPro Acutase (1 mL/well, 15 minutes at room temperature, Gibco) and seeded onto a pre-coated 96-well plate. The supernatant was collected and analysed for cytokine/chemokine production after 24 hours.
Cytokine analysis: IL-1β, IFN-γ, IL-6, TNF-α (BD Biosciences), IL-17, and MIP-2 (R&D) levels were determined via sandwich ELISA according to the manufacturer's instructions.
First, the ability of the compounds to activate GM-CSF BMDMs was determined by monitoring the secretion of the inflammatory cytokines TNF, IL-6, and IL-1β and the chemokine, MIP-2, in a ligand-coated plate assay (FIG. 2).
To gain insight into the capacity of the 2G-series of brartemicin analogues to induce an inflammatory immune response, the analogues were then screened for their ability to activate WT and Mincle^−/− BMDMs, with cellular activation being determined by the measurement of IL-1B using ELISA (FIG. 6).

hMincle+FcRγ = molecular target: T1, hMincle+FcRγ (Homo sapiens, UniProt Q9ULY5); test: 2B4-NFAT-GFP reporter cells expressing hMincle+FcRγ; type: cell-based; settings: ligand-coated plates 0.01, 0.1 or 1 nmol/well, 18 hours
T1 construct: expressed in transfected cells; host or cells: 2B4-NFAT-GFP reporter cells
T1 sequence (Q9ULY5 1-219): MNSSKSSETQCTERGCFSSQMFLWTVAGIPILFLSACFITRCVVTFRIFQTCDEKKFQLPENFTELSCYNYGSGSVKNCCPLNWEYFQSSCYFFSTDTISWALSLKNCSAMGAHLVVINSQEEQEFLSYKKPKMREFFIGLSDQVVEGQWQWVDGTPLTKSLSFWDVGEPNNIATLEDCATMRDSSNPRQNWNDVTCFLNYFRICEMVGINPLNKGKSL
Experimental: as §1
2B4-NFAT-GFP reporter cells: 2B4-NFAT-GFP reporter cells expressing mMincle+FcRγ, hMincle+FcRγ, or FcRγ only have been previously described. […] The reporter cells were harvested, stained with propidium iodide, and analysed for NFAT-GFP expression using flow cytometry (FACS Calibur).
To determine whether the Mincle binding observed in Example 1 correlated with cellular activation, nuclear factor of activated T cells (NFAT)-green fluorescent protein (GFP) reporter cells expressing mMincle or hMincle coupled to FcRγ were stimulated using plates coated with TDM, TDB, brartemicin (9i), or analogues 9a-9h.
Activation of the reporter cells was measured through the production of GFP, which was monitored by flow cytometry (FIGS. 1b and 3c).
With the compounds 43a-h in hand, the ability of these analogues to bind and signal through Mincle was assessed (FIG. 5). Accordingly, NFAT-GFP reporter cells expressing mMincle+FcRγ, hMincle+FcRγ, or FcRγ-only were stimulated with the 2G-brartemicin analogues 43a-h, TDB, iPrOH, or the p-OC18H37 substituted analogue, 9f. Reporter cell activation was measured by the production of NFAT-GFP, which was analysed by flow cytometry.

[1] = s.c. OVA 200 μg + adjuvant 0.3 μmol

## 6,6′-Di-O-(2-hydroxy-4-octabenzyloxybenzoyl)-α,α′-D-trehalose [9a]
C57BL/6 mice; all concentrations of OVA re-stimulation
  cell count compared to TDB: significant increase in cell count
C57BL/6 mice; [1]
  number of splenocytes as compared to OVA alone: significantly larger number of splenocytes
  Th1 immune response / adjuvant activity in vivo: potent adjuvant activity in vivo; also recorded: strong Th1 recall response; also recorded: polarised immune response with a distinct Th1 profile
C57BL/6 mice; s.c. OVA 200 μg + adjuvant 0.3 μmol, listed as C18dMeBrar
  Th1 immune response / adjuvant activity in vivo: stronger Th1 immune response
C57BL/6 mice; s.c. OVA 200 μg + adjuvant 0.3 μmol, OVA challenge 100 μg/footpad
  footpad swelling: neither 9a nor TDB induced any
C57BL/6 mice; s.c. OVA 200 μg + adjuvant 0.3 μmol, restimulation 10, 30 or 100 μg/mL OVA
  IL-17 production by splenocytes restimulated with OVA: neither 9a nor TDB induced any
C57BL/6 mice; s.c. OVA 200 μg + adjuvant 0.3 μmol, splenocytes restimulated with 100 μg/mL OVA
  antigen specific IFN-γ production, re-stimulating with 100 μg/mL of antigen: significantly enhanced cytokine production
C57BL/6 mice; s.c. OVA 200 μg + adjuvant 0.3 μmol, splenocytes restimulated with 10, 30 or 100 μg/mL OVA
  antigen specific IFN-γ production, all concentrations of OVA: trend towards increased
C57BL/6 mice; serum, ELISA
  IgG1 antibody production: showed increases
  IgG2b antibody production: showed increases
  IgG2c antibody production: showed increases
  production of IgG2c as compared to OVA alone: three-fold
  production of OVA-specific IgG antibodies: elevated the production of IgG antibodies
C57BL/6 mice; serum, ELISA, listed as C18dMeBrar
  production of OVA-specific IgG antibodies: only significant for C18dMeBrar
wild-type GM-CSF BMDMs
  IL-1β production: significant production
  IL-6 production: significant production
  MIP-2 production: significant production
  TNF production: significant production
hMincle+FcRγ
  activation of hMincle NFAT-GFP reporter cells (GFP by flow cytometry): strongly activated; also recorded: best able to activate hMincle
